Drawing on ChEMBL document CHEMBL1158662, “Cochinolide, a new gamma-alkylidene bicyclic butenolide with antiviral activity, and its beta-glucopyranoside from Homalium cochinchinensis” (J Nat Prod, 1998), this text covers Activity and EC50 for 2 molecules.

One assay deals with Human alphaherpesvirus 1. Description: Antiviral activity against HSV1. The assay is classed as functional, organism-based.
A further assay concerns Human alphaherpesvirus 2. The assay is described as follows: Antiviral activity against HSV2. The class given is functional, organism-based.

Values after ≈ are worked out from the molar mass of the structure shown. Active and inactive are the calls of the source. The rule behind the calls is not given here.

As to `O=C1OC2=C[C@@H](O[C@@H]3O[C@H](CO)[C@@H](O)[C@H](O)[C@H]3O)CCC2=C1C(O)c1ccccc1` (some centres undefined), the result with Human alphaherpesvirus 1 and with Human alphaherpesvirus 2 was inactive.
Regarding `Nc1nc2c(ncn2COCCO)c(=O)[nH]1` [ACYCLOVIR], the EC50 in the assay with Human alphaherpesvirus 1 amounted to 0.24 µg/mL (≈ 1.07 µM); with Human alphaherpesvirus 2, 0.22 µg/mL (≈ 0.977 µM).

For orientation: EC50 means the concentration at which the effect is half-maximal. A lower EC50 goes with higher potency in that assay.
